Measured values published in article PMC9180170, “Amentoflavone Promotes Cellular Uptake and Degradation of Amyloid-Beta in Neuronal Cells” (International Journal of Molecular Sciences, 2022).

Key:
[1] = test system: N2a cells; assay: Aβ uptake assay with pharmacologic inhibitors of endocytosis; type: cell-based, mouse; conditions: for effect on TAMRA-Aβ1-40 uptake with or without AMF (in words): in the presence or absence of 10 μM AMF, heparin 20 U/mL, cytochalasin D 0.4 or 2 μg/mL
Procedure: (§1) The Aβ uptake assay was performed as described, with modifications. N2a cells were seeded in a 24-well culture plate (2 × 10^5 cells/well) the day prior to the experiments. The next day (cell density at near confluency), cells were rinsed twice with warmed (37 °C) DMEM and incubated in DMEM containing 0.1% bovine serum albumin, 200 nM fluorescently labeled Aβ in the presence or absence of various concentrations of test compounds in a final volume of 200 µL. Cells were then incubated at 37 °C for three hours in the humidified CO2 incubator. The culture plate was placed on ice and the reaction medium was collected in a 1.5-mL microcentrifuge tube. Cells were rinsed twice with phosphate-buffered saline (PBS) containing 137 mM NaCl, 2.7 mM KCl, 10 mM Na2HPO4, and 1.8 mM KH2PO4 (pH: 7.4). To cleave cell surface-bound Aβ and extracellular matrix proteins, cells were treated with 0.05% trypsin in 200 µL PBS at room temperature on an orbital shaker for 5 min. Detached cells were transferred to a microcentrifuge tube and centrifuged at 5000× g for 5 min using a bench-top centrifuge (Thermo Fisher Scientific, Waltham, MA, USA). The supernatant and cell pellet were separated and kept at −80 °C until analysis. Cells were lysed in a buffer containing 20 mM HEPES (pH 7.4), 7.5 mM MgCl2, 1% sodium dodecyl sulfate, 1% Triton X-100, and Complete protease inhibitor cocktail (Sigma-Aldrich, St. Louis, MO, USA). The cell lysate was centrifuged at 10,000× g at 4 °C for 10 min. The fluorescent intensity was measured at λEX = 490 and λEM = 520 for FAM, and λEX = 545 and λEM = 575 for TAMRA using a Biotek Synergy HT plate reader (Winooski, VT). Protein concentrations of the cell lysates were determined using a BCA assay kit (Sigma-Aldrich, St. Louis, MO, USA). The fluorescent intensity of each sample was used to calculate an amount of Aβ in pmole and normalized to protein content. Cellular uptake of Aβ was expressed as pmole/mg protein.
To examine the role of receptor-mediated endocytosis on AMF-induced promotion of Aβ1-40 uptake, we performed the Aβ uptake assay utilizing pharmacologic inhibitors of endocytosis. […] Thirty minutes later, cells were subjected to the Aβ uptake assay with or without 10 μM AMF as described above.

[2] = test system: N2a cells; assay: Aβ uptake assay with fluorescently labeled Aβ in N2a cells; type: cell-based, mouse; conditions: 200 nM TAMRA-Aβ1-40, 10 μM AMF, one, three and six hours, TAMRA fluorescence liberated by trypsin digestion
[3] = test system: N2a cells; assay: Lactate dehydrogenase (LDH) activity assay for cytotoxicity; type: cell-based, mouse; conditions: 24 h
Procedure: The cytotoxicity of Aβ species in N2a cells was assessed using an LDH activity assay kit according to the manufacturer’s protocol (Sigma-Aldrich, St. Louis, MO, USA). Briefly, the Aβ uptake assay was performed as described above using FAM-Aβ1-40 or FAM-Aβ1-42. Twenty-four hours later, the incubation medium was transferred to a microcentrifuge tube and spun at 10,000× g for 5 min to remove cell debris. Triplicate samples of the assay medium were added with an equal volume of LDH master reaction mixture (50 µL/well) to each well of a 96-well plate. The optical density was measured at 37 °C for 30 min at a 5-min interval at a wavelength of 450 nm using a plate reader (Biotek, Winooski, VT, USA).

[4] = test system: N2a cells; assay: Aβ uptake assay with fluorescently labeled Aβ in N2a cells; type: cell-based, mouse; conditions: for increase in Aβ1-40 uptake: fluorometry; for effect on cellular uptake of TAMRA-Aβ1-40 (in words): 200 nM TAMRA-Aβ1-40, various concentrations of compound
Procedure: Fluorescent conjugated Aβ peptides were ≥95% in purity as determined by the HPLC method per the vendor (AnaSpec; Fremont, CA, USA). These peptides were dissolved in dimethyl sulfoxide to make 100 μM stock solutions, aliquoted, and stored at −80 °C until use. The fluorescent intensity and protein concentration of each peptide was determined as described below to calculate their specific activities (fluorescent intensity per mg of the conjugated peptide).
as §1

[5] = test system: BV2 microglial cells; assay: Aβ uptake assay in BV2 microglia; type: cell-based, mouse; conditions: 200 nM TAMRA-Aβ1-40, 3 h, 37 °C, three independent experiments
Procedure: (§2) Figure 7 Amentoflavone promotes the cellular uptake of Aβ peptide in glial cells. Mouse BV2 microglial cells (A) and immortalized astrocytes (B) were incubated with or without 2 or 10 μM amentoflavone (AMF) plus 200 nM TAMRA Aβ1-40 for three hours at 37 °C. The cells were harvested, and the fluorescent intensity of TAMRA was determined by fluorometry.
(§3) N2a cells were grown in Dulbecco’s Modified Eagle Medium (DMEM) supplemented with 10% fetal bovine serum, 100 U/mL penicillin and 100 µg/mL streptomycin at 37 °C in a humidified CO2 incubator (Thermo Fisher Scientific, Waltham, MA, USA). Cells at less than five passages were used in the experiments. The immortalized BV-2 murine microglial cell line was grown and maintained in DMEM containing antibiotics and 2% fetal bovine serum. The immortalized mouse astrocyte cell line was kindly gifted by David Holtzman at Washington University in St. Louis and maintained in DMEM containing antibiotics and 10% fetal bovine serum.
(§4) The Aβ uptake assay was performed as described, with modifications. […] The fluorescent intensity was measured at λEX = 490 and λEM = 520 for FAM, and λEX = 545 and λEM = 575 for TAMRA using a Biotek Synergy HT plate reader (Winooski, VT). Protein concentrations of the cell lysates were determined using a BCA assay kit (Sigma-Aldrich, St. Louis, MO, USA). […] Cellular uptake of Aβ was expressed as pmole/mg protein.

[6] = test system: immortalized astrocytes; assay: Aβ uptake assay in immortalized astrocytes; type: cell-based; conditions: immortalized mouse astrocytes, 2 or 10 μM AMF, 200 nM TAMRA-Aβ1-40, 3 h
Procedure: as §2, §3, §4

[7] = test system: N2a cells; assay: Immunoblotting of internalized Aβ1-40 in cell lysates; type: cell-based, mouse; conditions: for effect on intracellular levels of full-length (~4-kDa) monomeric Aβ1-40: N2a cells, unlabeled Aβ1-40, 3 h, 10 μM AMF or leupeptin 100 μg/mL, SDS-PAGE and immunoblotting, normalized to α-tubulin
Procedure: To examine the integrity of Aβ1-40 taken up into neuronal cells, N2a cells were treated with the lysosomal enzyme inhibitor, leupeptin (100 μg/mL), unlabeled Aβ1-40 peptide in the presence or absence of AMF and for 3 h, and cell lysates were subjected to SDS-PAGE followed by immunoblotting with an anti-Aβ1-40 antibody (Figure 4A,B). We observed that the intracellular levels of the full-length (~4-kDa), monomeric Aβ1-40 was increased in the presence of AMF (Figure 4A,B). […] The internalized Aβ1-40 was almost completely degraded within 3 h when N2a cells were incubated with Aβ1-40 for 3 h followed by incubation in the Aβ1-40-free culture medium (washout) for an additional 3 h (Figure 4A,B).
An equal amount of protein samples (5 µg/lane) was separated on a 4–20% gradient tris-tricine gel (Bio-Rad, Hercules, CA, USA) per our published protocol. The gel was transferred to a nitrocellulose membrane (Bio-Rad) at 4 °C for 3 h. Blots were blocked with PBS containing 5% dry milk for 1 h and incubated in PBS solution containing an anti-Aβ antibody HJ2 (1:2000 dilution) or anti-α-tubulin antibody (1:5000 dilution, Sigma-Aldrich). After washing, blots were incubated with goat anti-mouse IgG conjugated with horseradish peroxidase (Bio-Rad, Hercules, CA, USA). The signal was visualized using the HRP chemiluminescent kit (ThermoFisher Scientific, Waltham, MA, USA), and photographic images were taken using a Syngene gel imaging system (Frederick, MD, USA).

**Q.** Which results are given for `O=c1cc(-c2ccc(O)c(-c3c(O)cc(O)c4c(=O)cc(-c5ccc(O)cc5)oc34)c2)oc2cc(O)cc(O)c12` [AMF, amentoflavone]?
**A.** TAMRA-Aβ1-40 uptake with AMF, no inhibitor ([1]; 10 μM AMF, 200 nM TAMRA-Aβ1-40, 3 h, mean ± S.E.M., three independent experiments): 3.01 ± 0.22 pmole/mg protein; effect on TAMRA-Aβ1-40 binding to cell membrane [2]: significantly increased; effect on FAM-Aβ1-42-induced LDH release ([3]; 200 nM FAM-Aβ1-42, co-treatment with 1, 3 and 10 μM AMF): significantly inhibited; effect on intracellular accumulation of FAM-Aβ1-40 ([4]; 200 nM FAM-Aβ1-40, various concentrations of AMF, 3 h): increased; cellular uptake of FAM-Aβ1-42 with AMF ([4]; 200 nM FAM-Aβ1-42 plus 10 μM AMF, 3 h, mean ± S.E.M. (n = 4)): 7.52 ± 0.50 pmole/mg protein; effect on internalization of the inverted peptide FAM-Aβ42-1 ([4]; 200 nM FAM-Aβ42-1, 10 μM AMF, 3 h): no effect; increase in Aβ1-40 uptake ([4]; 200 nM TAMRA-Aβ1-40, 1 μM compound, 3 h, 37 °C, mean ± S.E.M. (n = 4)): 1.48 ± 0.05 fold; increase in Aβ1-40 uptake ([4]; 200 nM TAMRA-Aβ1-40, 3 μM compound, 3 h, 37 °C, mean ± S.E.M. (n = 4)): 2.48 ± 0.18 fold; increase in Aβ1-40 uptake ([4]; 200 nM TAMRA-Aβ1-40, 10 μM compound, 3 h, 37 °C, mean ± S.E.M. (n = 4)): 3.64 ± 1.12 fold; effect on cellular uptake of TAMRA-Aβ1-40 (in words) ([4]; 3 h): most potent activity; concentration of TAMRA-Aβ1-40 in the culture medium with AMF ([4]; 200 nM TAMRA-Aβ1-40 plus 10 μM AMF, after 3 h, mean ± S.E.M. (n = 4)): 170 ± 1.6 nM; increase in intracellular levels of TAMRA-Aβ1-40 ([5]; 2 μM AMF): 2.2 fold; increase in intracellular levels of TAMRA-Aβ1-40 ([5]; 10 μM AMF): 3.0 fold; effect on cellular uptake of TAMRA-Aβ1-40 in astrocytes (in words) [6]: significantly increased to a similar extent; effect on intracellular levels of full-length (~4-kDa) monomeric Aβ1-40 [7]: increased

**Q.** With `C=C1[C@@H](C)[C@H]2[C@H](Cc3ccccc3)NC(=O)[C@]23[C@H](OC(C)=O)/C=C/[C@@](C)(O)C(=O)[C@@H](C)C/C=C/[C@H]3[C@@H]1O` [cytochalasin D] as the compound, how does the “effect on TAMRA-Aβ1-40 uptake with or without AMF (in words)” value ([1]; 200 nM TAMRA-Aβ1-40, 3 h) read?
**A.** The value was “not blocked”.

**Q.** With “FAM-Aβ1-40: 5-carboxyfluorescein-labeled Aβ1-40 [reference compound]” as the compound, how does the “cytotoxicity by LDH release (in words)” value ([3]; 200 nM peptide, in the absence or presence of AMF) read?
**A.** Its value is “did not cause cell death”.

**Q.** “TAMRA-Aβ1-40: Aβ1-40 conjugated with a fluorophore 5-carboxytetramethylrhodamine [reference compound]” was tested. Which “concentration of TAMRA-Aβ1-40 in the culture medium without AMF” value ([4]; 200 nM TAMRA-Aβ1-40 alone (vehicle), after 3 h, mean ± S.E.M. (n = 4)) did it give?
**A.** Its value is 189 ± 0.6 nM.

**Q.** How did the “effect on AMF-induced promotion of Aβ1-40 uptake” value ([4]; TAMRA-Aβ1-40, leupeptin plus 10 μM AMF, peptide remaining in the culture medium) turn out when `CC(=O)N[C@@H](CC(C)C)C(=O)N[C@@H](CC(C)C)C(=O)N[C@H](C=O)CCCNC(=N)N` [leupeptin, reference compound] was run?
**A.** The value was “did not influence”.

**Q.** And the “effect on intracellular levels of full-length (~4-kDa) monomeric Aβ1-40” value [7]?
**A.** Its value is “significantly increased”.

**Q.** How did the “time to almost complete degradation of internalized Aβ1-40” value ([7]; N2a cells incubated with Aβ1-40 for 3 h, then Aβ1-40-free culture medium (washout), immunoblotting) turn out when Aβ1-40: unlabeled human Aβ1-40 peptide was run?
**A.** The value was at most 3 h.

**Q.** Which “effect on cellular uptake of TAMRA-Aβ1-40 (in words)” value (from here on “effect … of TAMRA-Aβ1-40 (in words)”) ([4]; 3 h) does the source give for `O=C(O[C@@H]1Cc2c(O)cc(O)cc2O[C@@H]1c1cc(O)c(O)c(O)c1)c1cc(O)c(O)c(O)c1` [EGCG, (-)-epigallocatechin gallate, reference compound] here?
**A.** Its value is “little to no effect”.

**Q.** Which “effect … of TAMRA-Aβ1-40 (in words)” value ([4]; 3 h) does the source give for `O=c1cc(-c2ccc(O)cc2)oc2cc(O)cc(O)c12` [apigenin, reference compound] here?
**A.** The value was “little to no effect”.

**Q.** How did the “effect … of TAMRA-Aβ1-40 (in words)” value ([4]; 3 h) turn out when `O=c1c(O)c(-c2ccc(O)c(O)c2)oc2cc(O)cc(O)c12` [quercetin, reference compound] was run?
**A.** Its value is “little to no effect”.

**Q.** How did the “effect on TAMRA-Aβ1-40 uptake with or without AMF (in words)” value ([1]; 200 nM TAMRA-Aβ1-40, 3 h) turn out when heparin was run?
**A.** Its value is “in part attenuated”.

**Q.** Which results are given for fucoidan?
**A.** effect on TAMRA-Aβ1-40 uptake without AMF (in words) ([1]; 200 nM TAMRA-Aβ1-40, 3 h, no AMF): no effect; TAMRA-Aβ1-40 uptake with inhibitor in the presence of AMF ([1]; 100 μM fucoidan (30 min pretreatment) plus 10 μM AMF, 200 nM TAMRA-Aβ1-40, 3 h, mean ± S.E.M., three independent experiments): 1.98 ± 0.17 pmole/mg protein

**Q.** Which results are given for “ApoE particles: astrocyte-secreted apolipoprotein E particles, inhibitor of LRP-1-mediated endocytosis”?
**A.** inhibition of AMF-induced TAMRA-Aβ1-40 uptake ([1]; 200 nM ApoE particles plus 10 μM AMF, 3 h): ~ 30%; decrease of cellular uptake of TAMRA-Aβ1-40 ([1]; 200 nM ApoE particles, no AMF, 3 h): ~ 75%

**Q.** “FAM-Aβ1-42: FAM-labeled Aβ1-42 [reference compound]” was tested. Which “cellular uptake of labeled peptide without AMF” value ([4]; 200 nM peptide, DMEM with 0.1% BSA, 3 h, 37 °C, fluorometry of cell lysate after trypsin, mean ± S.E.M. (n = 4)) did it give?
**A.** The value was 3.34 ± 0.84 pmole/mg protein.
